This note sets out measurements from patent US20150203561A1, “BETA THYMOSIN FRAGMENTS” (REGENERX BIOPHARMACEUTICALS, INC., priority 2008, published 2015).

For one data set, the system named is dermal Fb. In words: TNF-a-stimulated IL-8 secretion ELISA, dermal fibroblasts. The format is cell-based, human. The settings on record: 1 μg/ml, 10 ng/ml TNF-a. On the procedure:
(§1) Analysis of IL-8 Secretion • Human corneal epithelial cells or dermal Fb were cultured to 80% confluence • Cells were pre-treated with 1 μg/ml Tb4 or peptides for one hour • Cells were stimulated with 10 ng/ml TNF-a in the presence or absence of Tb4 or peptides • Culture medium was analyzed for secreted IL-8 by ELISA (n=3, experiments repeated twice) • Data was analyzed using the t-test

A further data set concerns neuron survival. In words: Promotion of neuron survival (summary table). Set-up: key: P = active; U = useful. The settings on record: summary of peptide uses.
Another data set relates to neurite outgrowth. Briefly: Promotion of neurite outgrowth (summary table). Further details: key: P = active; U = useful. The settings on record: summary of peptide uses.
Another data set has as its system L1. In words: Stimulation of L1 production (summary table). Set-up: key: P = active; U = useful. The settings on record: summary of peptide uses.
The next data set deals with cell migration. Briefly: Stimulation of migration (summary table). Set-up: key: P = active; U = useful. The settings on record: summary of peptide uses. The class given is cell-based.
For data set [1], the system named is TNF-a-stimulated IL8 secretion. In words: Suppression of inflammation (summary table; IL-8 secretion). The class given is cell-based, human. Further details: key: P = active; U = useful. The settings on record: summary of peptide uses. On the procedure: as §1
Data set [2] has as its system tissue damage caused by UV radiation. In words: UV radiation tissue damage (summary table). Set-up: key: P = active; U = useful. The settings on record: summary of peptide uses.
For data set [3], the system named is Transformed human corneal epithelial cells (HCET). In words: Collagen type IV secretion ELISA. The format is cell-based. The settings on record: for Stimulates collagen IV: summary of peptide uses. Set-up: key to Stimulates collagen IV: P = active; U = useful. On the procedure:
Effect of Tb4 and peptides on collagen type IV secretion • Transformed human corneal epithelial cells (HCET) were cultured to 80% confluence • Cells were treated with 1 μg/ml Tb4 or peptides for 24 hours • Culture supernatant samples (n=3 per experiment, total of 4 experiments) were analyzed using a collagen type IV ELISA • Data was analyzed using the t-test
(ELISA stands for enzyme-linked immunosorbent assay.)

The subject of data set [4] is human dermal fibroblasts. In words: LDH cytotoxicity assay in human dermal fibroblasts exposed to cytotoxic agents. The class given is cell-based. Further details: key to Protects from cytotoxicity: P = active; U = useful. The settings on record: summary of peptide uses. On the procedure:
Dose Response Analysis of Peptide 3A • Human dermal fibroblasts (Fb, Cascade Biologics, OR) were cultured to 80% confluence • 2 ml CHX (0.002%) in basal medium ±1 μg/ml Tb4 or 1.0, 0.1, 0.01, or 0.001 μg/ml peptide 3A was added to Fb for 1, 2, 3, or 4 hours • 100 μl culture medium (n=4) was added to 100 μl LDH reagent and incubated at room temperature for 20 minutes • OD500 nm was read and averages ±SEM were calculated • Data was analyzed with probability of p≦0.05

Data set [5] deals with human dermal fibroblasts. Briefly: Collagen secretion, colorimetric assay. The class given is cell-based. Set-up: key to Stimulates collagens / Inhibits collagens: P = active; U = useful. The settings on record: summary of peptide uses. On the procedure: Effect of Tb4 and peptides on collagen secretion • Human dermal fibroblasts (Fb) were cultured to 80% confluence • Cells were treated with 1 μg/ml Tb4 or peptides for 24, 48, or 72 hours. Cells were treated once/day. • Culture supernatants (n=3, experiments repeated 5 times) were assayed for collagen secretion using a colorimetric assay that detects collagen types I, II, III, IV and V, and possibly VII

The subject of data set [6] is p65 subunit of NFkB in human corneal epithelial cells. Briefly: NFkB nuclear translocation. The settings on record: summary of peptide uses. Set-up: key: P = active; U = useful. The class given is cell-based. On the procedure:
Analysis of NFkB Nuclear Translocation • Human corneal epithelial cells were cultured to 80% confluence • Cells were pre-treated with 1 μg/ml Tb4 or peptide 4A or 6A for one hour • Cells were stimulated with 10 ng/ml TNF-a in the presence or absence of Tb4 or peptides for 15 minutes • Cells were fixed and labeled with antibodies to the p65 subunit of NFkB

The test system of the next data set is human dermal Fb. Briefly: CHX-induced apoptosis (APOPercentage dye) in human dermal Fb. The format is cell-based. The settings on record: summary of peptide uses. Further details: key to Inhibits apoptosis: P = active; U = useful. On the procedure: Effect of Tb4 and Peptide 3A on CHX-induced apoptosis • Human dermal Fb were cultured to 80% confluence • Fb were treated with 0.002% CHX+1 μg/ml Tb4 or peptide 3A, 4A or 6A for 1.5 hours • APOPercentage “dye” was added to the Fb cultures at a 1:50 dilution for an additional 30 minutes • Excess dye was washed from the cells, and digital images were captured. Cells dyed red were apoptotic • Adobe Photoshop was used to calculate the number of red pixels in six digitized images for each treatment • Statistical analysis was done using the t-test

The test system of data set [7] is human dermal fibroblasts. Briefly: Elastin secretion, colorimetric assay. The format is cell-based. Further details: key to Stimulates Elastin: P = active; U = useful. The settings on record: for Stimulates Elastin: summary of peptide uses. On the procedure: Effect of Tb4 and peptides on elastin secretion • Human dermal fibroblasts (Fb) were cultured to 80% confluence • Cells were treated with 1 μg/ml Tb4 or peptides for 24, 48, or 72 hours. Cells were treated once/day. • Culture supernatants (n=3, experiments repeated 6 times) were assayed for elastin secretion using a colorimetric assay • Data was analyzed using the t-test

In the next data set the test system is T-lymphocyte. Briefly: Impaired T-lymphocyte blastogenic response (summary table). Further details: key: P = active; U = useful. The settings on record: summary of peptide uses.
In another data set the target is T1, IKKb (Homo sapiens, UniProt O14920).
T1 sequence (O14920 1-756): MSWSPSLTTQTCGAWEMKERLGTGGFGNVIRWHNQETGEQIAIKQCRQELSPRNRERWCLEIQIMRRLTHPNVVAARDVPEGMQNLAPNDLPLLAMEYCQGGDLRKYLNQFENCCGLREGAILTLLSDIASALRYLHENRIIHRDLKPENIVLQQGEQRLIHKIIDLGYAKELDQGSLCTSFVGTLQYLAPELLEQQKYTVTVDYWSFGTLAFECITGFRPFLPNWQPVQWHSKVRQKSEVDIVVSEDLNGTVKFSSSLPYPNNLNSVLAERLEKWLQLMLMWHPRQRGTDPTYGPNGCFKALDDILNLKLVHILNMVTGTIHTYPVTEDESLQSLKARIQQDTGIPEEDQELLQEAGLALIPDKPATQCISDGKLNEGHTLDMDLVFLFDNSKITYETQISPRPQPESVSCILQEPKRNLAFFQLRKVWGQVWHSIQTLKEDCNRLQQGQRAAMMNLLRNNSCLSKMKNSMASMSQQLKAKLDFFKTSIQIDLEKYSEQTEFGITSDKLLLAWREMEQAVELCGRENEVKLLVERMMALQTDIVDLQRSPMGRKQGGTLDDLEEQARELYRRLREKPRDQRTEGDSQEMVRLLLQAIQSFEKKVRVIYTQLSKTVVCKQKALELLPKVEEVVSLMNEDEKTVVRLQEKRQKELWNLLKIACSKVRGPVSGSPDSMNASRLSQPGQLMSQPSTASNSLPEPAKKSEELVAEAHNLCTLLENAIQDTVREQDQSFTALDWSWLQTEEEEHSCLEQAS
In words: Cell-free IkBa phosphorylation ELISA (NFkB signaling pathway). The format is biochemical. Set-up: key to Inhibits IkBa phosphorylation: P = active; U = useful. The settings on record: summary of peptide uses. On the procedure: Effect of Tb4 and peptides on the NFkB signaling pathway • Cell-free assay • Prepared 1.0, 0.1, and 0.01 ng/ml solutions of Tb4 or peptides in kinase buffer supplied with kit • Added 10 μl of the solutions to wells of a 96-well plate coated with lkBa • IKKb (20 mU) was added to wells • 90 μl kinase reaction buffer (containing ATP) was added to the wells • ELISA to detect phosphorylated lkBa

As for “Ac-Ser-Asp-Lys-Pro-OH (Ac-SDKP-OH) [Peptide 2B]”, the “Suppression of TNF-a-stimulated IL8 secretion” value in the data set on dermal Fb was “suppress”. Moreover, in the data set on neuron survival, the Promotes neuron survival result is “U”. Moreover, the Promotes neurite outgrowth result with neurite outgrowth is listed as “U”. Also, in the data set with L1, the “Stimulates L1 production” value is given as “U”. Moreover, in the data set with cell migration, the “Stimulates Migration” value is “P”. In addition, the Suppresses inflammation entry in [1] is reported as “P”. Moreover, in [2], the “Inhibits tissue damage caused by UV radiation” value (“Inhibits tissue damage caused” for short) is “U” and the “Protects tissue from UV radiation damage” value is “U”.

In the case of “H-SDKPDMAEIEKFDKSKLKKTETQ-OH [Fragment Ba]”, the “Stimulates collagen IV” value in data set [3] is “U”. Further, in the data set on human dermal fibroblasts [4], the Protects from cytotoxicity entry is on record as “U”. Also, the Promotes neuron survival result in the data set with neuron survival is “U”. Besides, in the data set with human dermal fibroblasts [5], the Inhibits collagens entry was “U”. The “Inhibits NFkB translocation” value in data set [6] is given as “U”. Besides, the Promotes neurite outgrowth entry in the data set on neurite outgrowth was “U”. Moreover, the “Stimulates L1 production” value with L1 is given as “U”. The “Stimulates Migration” value in the data set on cell migration is reported as “U”. Also, the Suppresses inflammation entry in data set [1] is given as “U”. Besides, the Inhibits apoptosis result in the data set with human dermal Fb was “U”. For the same substance, in [2], the “Inhibits tissue damage caused” value is recorded as “U” and the “Protects tissue from UV radiation damage” value is reported as “U”. For the same substance, the “Stimulates Elastin” value in the data set on human dermal fibroblasts [7] is recorded as “U”.

Take “H-Leu-Lys-Lys-Thr-Glu-Thr-Gln-Glu-Lys-Asn-Pro-Leu-Pro-Ser-Lys-Glu-Thr-Ile-Glu-Gln-Glu-Lys-Gln-Ala-Gly-Glu-Ser-OH (H-LKKTETQEKNPLPSKETIEQEKQAGES-OH) [Fragment Da]”: the “Restores impaired T-lymphocyte blastogenic response” value in the data set on T-lymphocyte is “U”. In addition, in the data set on neuron survival, the Promotes neuron survival result is recorded as “U”. The Inhibits collagens result in the data set with human dermal fibroblasts [5] is reported as “U”. Further, the “Inhibits IkBa phosphorylation” value with IKKb is reported as “U”. Further, the Promotes neurite outgrowth entry in the data set on neurite outgrowth was “U”. Besides, the “Stimulates L1 production” value in the data set with L1 was “U”. Also, in [2], the “Inhibits tissue damage caused” value is listed as “U” and the “Protects tissue from UV radiation damage” value is “U”. Besides, in the data set on human dermal fibroblasts [7], the “Stimulates Elastin” value is on record as “U”.

Turning to “H-Leu-Lys-Lys-Thr-Glu-Thr-Gln-OH (H-LKKTETQ-OH) [Peptide 4A]”, the “Collagen type IV secretion” value in [3] (corneal epithelial cells, 1 μg/ml, 24 hours) is “stimulate”. Moreover, in data set [3], the “Stimulates collagen IV” value is given as “P”. The Promotes neuron survival result in the data set with neuron survival is given as “U”. Also, in data set [6], the “Inhibits NFkB translocation” value is “P”. In addition, the Promotes neurite outgrowth result in the data set on neurite outgrowth is reported as “U”. Also, the “Stimulates L1 production” value in the data set on L1 is recorded as “U”. Moreover, in [2], the “Inhibits tissue damage caused” value is given as “U” and the “Protects tissue from UV radiation damage” value is reported as “U”. Besides, the Secretion of elastin result with human dermal fibroblasts [7] (dermal Fb, 1 μg/ml once/day, 24, 48, or 72 hours) is on record as “stimulates”. Besides, the “Stimulates Elastin” value in the data set with human dermal fibroblasts [7] is reported as “P”.

Consider “H-SDKPDMAEIEKFDKSKLKKTET-OH [Fragment Aa]”, for which the “Stimulates collagen IV” value in [3] is on record as “U”. The Protects from cytotoxicity result in the data set with human dermal fibroblasts [4] is reported as “U”. Moreover, in the data set on neuron survival, the Promotes neuron survival entry was “U”. Further, in the data set with human dermal fibroblasts [5], the Inhibits collagens result is reported as “U”. Moreover, the “Inhibits NFkB translocation” value in data set [6] is on record as “U”. Moreover, the Promotes neurite outgrowth entry with neurite outgrowth was “U”. Also, the “Stimulates L1 production” value in the data set with L1 is “U”. Besides, the “Stimulates Migration” value in the data set with cell migration is “U”. Moreover, the Suppresses inflammation result in data set [1] is “U”. In addition, the Inhibits apoptosis result in the data set with human dermal Fb is “U”. In data set [2], the “Inhibits tissue damage caused” value is reported as “U” and the “Protects tissue from UV radiation damage” value was “U”. Further, in the data set with human dermal fibroblasts [7], the “Stimulates Elastin” value was “U”.

On to “Ac-Leu-Lys-Lys-Thr-Glu-Thr-Gln-Glu-Lys-Asn-Pro-Leu-Pro-Ser-Lys-Glu-Thr-Ile-Glu-Gln-Glu-Lys-Gln-Ala-Gly-Glu-Ser-OH (Ac-LKKTETQEKNPLPSKETIEQEKQAGES-OH) [Fragment Db]”, for which the “Restores impaired T-lymphocyte blastogenic response” value in the data set on T-lymphocyte was “U”. For the same substance, the Promotes neuron survival entry in the data set with neuron survival was “U”. In the data set with human dermal fibroblasts [5], the Inhibits collagens result was “U”. For the same substance, the “Inhibits IkBa phosphorylation” value in the data set with IKKb is “U”. Moreover, the Promotes neurite outgrowth result in the data set on neurite outgrowth is recorded as “U”. For the same substance, the “Stimulates L1 production” value with L1 was “U”. Besides, in data set [2], the “Inhibits tissue damage caused” value is reported as “U” and the “Protects tissue from UV radiation damage” value is “U”. The “Stimulates Elastin” value in the data set with human dermal fibroblasts [7] is reported as “U”.
